Measurements as given in patent US20140335179A1, “[…] OF ATORVASTATIN HEMICALCIUM” (DSM SINOCHEM PHARMACEUTICALS NETHERLANDS B.V., priority 2011, published 2014).
“And” between values parts separate entries of the source, which are not always exact repeats. Identical values can stand only once.

Columns and labels:
[1] = mean value of 35 separate batches
Procedure: • Instrument: The PSD was determined using a Malvern Mastersizer 2000 equipped with hydro 2000S(A), flow cell, Fourier lenses and a multi-element detector • Data handling system: Malvern Mastersizer 2000 version 5.21 • Technique used: Wet method • Optical parameters: Optical presentation comprising of: • Particle RI: 1.5 • Absorption: 0 • Dispersant RI: 1.375 or 1.4 • Analysis Model: General purpose • Sample measurement snaps: 5000 • Background meas. snaps: 5000 • No. of measurement cycles: 5 • Delay between measurements: 5 sec • Preparation of sample solution: About 25 mg of the sample was weighed in a beaker and about 20 mL of dispersion medium was added with constant stirring and sonification for 30 sec resulting in a uniform dispersion. After sonification the measurement was performed after the obscure value was stabilized between 10-20% • Procedure: • a. The flow cell was assembled to the instrument • b. Dispersion medium poured to Hydro 2000S(A) unit • c. Stirrer speed was set at 2200 rpm • d. Instrument was aligned after feeding the required parameters • e. Background was measured • f. Sample was analyzed by recording five measurements for each sample preparation and the mean RSD values were collected at D(v, 0.1), D(v, 0.5) and D(v, 0.9)

[2] = Specific surface area determination by nitrogen gas sorption (BET); assay type: physicochemical; details: individual samples, hemi calcium salt
Procedure: Specific surface area of the samples was determined using nitrogen gas sorption (Smartsorb, Smart Instruments, Mumbai, India). Prior to measurements, weighed samples were regenerated by degassing to remove moisture and contamination. The regenerated sample was dipped in liquid nitrogen and the quantity of the adsorbed gas was measured using thermal conductivity detector and then integrated using electronic circuit in terms of counts. The instrument was calibrated by injecting known quantity of nitrogen. The measured parameters were then used to calculate surface area of the sample by employing the adsorption theories of Brunauer, Emmett and Teller (BET).

[3] = Determination of intrinsic dissolution rate (IDR), stationary disc method, USP 24 apparatus; assay type: physicochemical; details: 37°C, 100 rpm, hemi calcium salt; for IDR, mean value: 50 mM sodium dihydrogen phosphate buffer pH 6.8 with 2% w/v sodium lauryl sulphate
Procedure: IDR of crystalline and amorphous atorvastatin hemi-calcium samples was performed by the stationary disc method using USP 24 apparatus. The discs were prepared by compacting 100 mg of powder at 800 psi pressure in a hydraulic press (Hydraulic Unit Model 3912, Carver Inc., WI) with a dwell time of 15 sec, in 8 mm punch die set (surface area 0.5 cm^2). The dissolution studies were performed in 500 ml of 50 mM sodium dihydrogen phosphate buffer (pH 6.8) containing 2% w/v sodium lauryl sulphate maintained at a temperature of 37±0.5° C. and a rotational speed of 100 rpm. Samples were withdrawn at regular intervals, replaced with dissolution medium, and analyzed by UV spectrophotometry at 242 nm up to 60 minutes.

## CC(C)c1c(C(=O)Nc2ccccc2)c(-c2ccccc2)c(-c2ccc(F)cc2)n1CC[C@@H](O)C[C@@H](O)CC(=O)O.CC(C)c1c(C(=O)Nc2ccccc2)c(-c2ccccc2)c(-c2ccc(F)cc2)n1CC[C@@H](O)C[C@@H](O)CC(=O)O.CC(C)c1c(C(=O)Nc2ccccc2)c(-c2ccccc2)c(-c2ccc(F)cc2)n1CC[C@@H](O)C[C@@H](O)CC(=O)[O-].CC(C)c1c(C(=O)Nc2ccccc2)c(-c2ccccc2)c(-c2ccc(F)cc2)n1CC[C@@H](O)C[C@@H](O)CC(=O)[O-].[Ca+2] (relative stereo) [crystalline atorvastatin hemi-calcium having a well-defined ] [[R-(R*,R*)]-2-(4-fluorophenyl)-β,δ-dihydroxy-5-(1-methylethyl)-3-phenyl-4-[(phenylamino)carbonyl]-1H-pyrrole-1-heptanoic acid hemi calcium salt]
[1]
  PSD d10: 3 μm
  PSD d50: 6 μm
  PSD d90: 12 μm
[2]
  surface area: 8.550±0.051 m^2/g and 8.384±0.303 m^2/g and 8.684±0.216 m^2/g
[3]
  IDR, mean value: 0.132 mg/cm^2/min
[3]; three different micronized samples of the Example, pH 6.8 buffer with 2% SLS
  IDR values of three samples: 0.146±0.013 mg/cm^2/min and 0.130±0.017 mg/cm^2/min and 0.109±0.006 mg/cm^2/min

## CC(C)c1c(C(=O)Nc2ccccc2)c(-c2ccccc2)c(-c2ccc(F)cc2)n1CC[C@@H](O)C[C@@H](O)CC(=O)O.CC(C)c1c(C(=O)Nc2ccccc2)c(-c2ccccc2)c(-c2ccc(F)cc2)n1CC[C@@H](O)C[C@@H](O)CC(=O)O.CC(C)c1c(C(=O)Nc2ccccc2)c(-c2ccccc2)c(-c2ccc(F)cc2)n1CC[C@@H](O)C[C@@H](O)CC(=O)[O-].CC(C)c1c(C(=O)Nc2ccccc2)c(-c2ccccc2)c(-c2ccc(F)cc2)n1CC[C@@H](O)C[C@@H](O)CC(=O)[O-].[Ca+2] (relative stereo) [amorphous atorvastatin, [R-(R*,R*)]-2-(4-fluorophenyl)-β,δ-dihydroxy-5-(1-methylethyl)-3-phenyl-4-[(phenylamino)carbonyl]-1H-pyrrole-1-heptanoic acid hemi calcium salt, reference compound]
[3]
  IDR, mean value: 0.281 mg/cm^2/min
